Assay results reported in PubChem BioAssay (NCI).
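Briefly, cells in 96-well plates were exposed to five compound concentrations for 48 h, and endpoints were estimated by linear interpolation. GI50: concentration for 50% inhibition of growth. TGI: total growth inhibition.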 Calls of active or inactive are those of the source. Rule as the data show it: active = GI50 below about 0.43 µM; inactive = the rest.

What was measured:
Assay in all cases: NCI tumour cell line growth inhibition, 48 h
HOP-18 NSCLC = system: HOP-18 NSCLC
DMS 273 small cell lung = system: DMS 273 small cell lung
KM20L2 colon = system: KM20L2 colon
P388/ADR leukemia = system: P388/ADR leukemia
OVCAR-8 ovarian = system: OVCAR-8 ovarian
DMS 114 small cell lung = system: DMS 114 small cell lung
SF-539 CNS = system: SF-539 CNS
RXF 393 renal = system: RXF 393 renal
XF 498 CNS = system: XF 498 CNS
PC-3 prostate = system: PC-3 prostate
DU-145 prostate = system: DU-145 prostate

Structure (SMILES)	TGI (HOP-18 NSCLC) [µM]	TGI (DMS 273 small cell lung) [µM]	TGI (KM20L2 colon) [µM]	TGI (OVCAR-8 ovarian) [µM]	TGI (DMS 114 small cell lung) [µM]	TGI (SF-539 CNS) [µM]	TGI (RXF 393 renal) [µM]	TGI (XF 498 CNS) [µM]	TGI (PC-3 prostate) [µM]	TGI (DU-145 prostate) [µM]	further results
O=NN1C(c2ccccc2)CCCC1c1ccccc1 (stereo not drawn)	> 100	> 100	> 100	> 100	> 100	> 100	> 100	87.5			TGI (P388/ADR leukemia): > 100 µM
COc1cc(/C(=C2/O[C@@H]([C@H]3COC(C)(C)O3)[C@H]3OC(C)(C)O[C@@H]23)c2ccc3c(c2)OCO3)cc(OC)c1OC				> 25		> 25	> 25		> 25	> 25	GI50 (PC-3 prostate): > 25 µM; GI50 (OVCAR-8 ovarian): > 25 µM; GI50 (DU-145 prostate): > 25 µM; GI50 (SF-539 CNS): 8.05 µM; GI50 (RXF 393 renal): 6.05 µM
CCOC(=O)C1=C(c2ccccc2)C12N(Cc1ccccc1)C(=O)C2(c1ccccc1)c1ccccc1 (stereo not drawn)						> 100	> 100		75.5	> 100	
O=P(O)(O)CN1CCNCCN(CP(=O)(O)O)CCN(CP(=O)(O)O)CCNCC1											outcome (PC-3 prostate): inactive; outcome (DU-145 prostate): inactive; outcome (SF-539 CNS): inactive; outcome (RXF 393 renal): inactive
COc1cc(-c2nc3cc(Cl)c(Cl)cc3[nH]2)ccc1OCC(=O)N=Nc1c(O)[nH]c2ccc(Cl)cc12							3.4				GI50 (RXF 393 renal): 1 µM
C[N+]1([O-])[C@H]2CC(OC(=O)[C@H](CO)c3ccccc3)C[C@H]1[C@H]1O[C@H]12 (stereo partly drawn)				> 100		> 100	> 100		> 100	> 100	
O=Cc1c(Br)[nH]c2ccccc12	> 100	> 100	> 100	> 100		> 100	> 100	> 100			TGI (P388/ADR leukemia): > 100 µM
COc1ccc([C@H]2c3cc4c(cc3OC(O)(CO)[C@H]2C(=O)O)OCO4)c(OC)c1 (stereo partly drawn) (tested in a mixture with another compound)	> 100	> 100	> 100	> 100	> 100	> 100	> 100	> 100			
Cc1cc2oc3c(ccc(=O)n3C)c(=O)c2c(C)c1Cl				> 100		74.6	95.6		> 100	> 100	
CCCCOc1ccc2c(c1)CC[C@@H]1[C@@H]2CC[C@]2(C)C(=O)N(CCCC)C(=O)C[C@@H]12				> 100					> 100	> 100	
O=C(c1ccccc1O)c1cc(-c2ncc3c(=O)c4ccccc4oc3n2)c(-c2ccccc2O)[nH]c1=O	> 100	88.3		> 90.2	80.4	20.4	93.4	67.9			TGI (P388/ADR leukemia): 61 µM
O=C(Nc1ccc(Sc2ccc(N=Nc3c(O)c(S(=O)(=O)O)cc4cc(S(=O)(=O)O)ccc34)cc2)cc1)c1ccc(N=Nc2c(O)c(S(=O)(=O)O)cc3cc(S(=O)(=O)O)ccc23)cc1	79.7	> 100	> 100	> 100	42.9	> 100	71.7	> 100			
NCCS(=O)(=O)O				> 100		> 100			> 100	> 100	
